Source: PMC5117135 (ACS Chemical Biology, 2016)

Legend:
[1] = tested on: HHQ and PQS quinolone production in P. aeruginosa strain PA14; assay: Inhibition of HHQ and PQS quinolone production, LC-MS/MS quantitation; type: cell-based, Pseudomonas aeruginosa; settings: dose and time course over 24 h
P. aeruginosa PA14 = assay: Compound accumulation, LC-MS/MS quantitation of lysate; type: cell-based, Pseudomonas aeruginosa; settings: 1000 μM extracellular, 30 min
MvfR = settings: binding to and activation of MvfR; cited from earlier work
PqsA = settings: read-out: Km as PqsA substrate; cited from earlier work

Nc1cccc(F)c1C(=O)O [6FABA, 6-Fluoroanthranilate]
lowest concentration that inhibited or delayed quinolone production [1]: 100 µM | penetration relative to the extracellular concentration applied (P. aeruginosa PA14): 2–3% | intracellular concentration (P. aeruginosa PA14; PA14 in LB, OD600 ≈ 0.5, calculated based on CFU): 20 to 30 µM

CCCCCCCc1nc2ccccc2c(O)c1O [PQS, 3,4-dihydroxy-2-heptylquinoline]
potency on MvfR relative to HHQ (MvfR): 100 fold

Nc1ccccc1C(=O)O [anthranilate]
Km (PqsA): 8 µM

O=C(O)c1ccccc1 [benzoate]
Km (PqsA): 150 µM
